Ki data for one compound are collected here from PMC6045374 (ACS Omega, 2018).

Experiment [1] addresses T1, homoserine kinase (CglThrB-A20G) (Corynebacterium glutamicum, UniProt P07128, A20G).
T1 sequence (P07128 1-309 A20G): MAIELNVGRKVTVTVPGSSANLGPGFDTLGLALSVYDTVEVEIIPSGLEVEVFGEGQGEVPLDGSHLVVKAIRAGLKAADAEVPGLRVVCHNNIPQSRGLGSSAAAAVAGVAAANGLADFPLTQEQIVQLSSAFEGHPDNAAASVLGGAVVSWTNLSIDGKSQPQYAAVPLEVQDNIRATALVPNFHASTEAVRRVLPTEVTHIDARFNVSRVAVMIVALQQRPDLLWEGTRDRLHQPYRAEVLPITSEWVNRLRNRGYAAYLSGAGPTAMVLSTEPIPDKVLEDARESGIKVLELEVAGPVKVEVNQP
Nature of the experiment: steady-state enzyme kinetics, ADP colorimetric assay. It is filed as biochemical.

Experiment [2] addresses T2, homoserine kinase (CglThrB-WT) (Corynebacterium glutamicum, UniProt P07128).
T2 sequence (P07128 2-309): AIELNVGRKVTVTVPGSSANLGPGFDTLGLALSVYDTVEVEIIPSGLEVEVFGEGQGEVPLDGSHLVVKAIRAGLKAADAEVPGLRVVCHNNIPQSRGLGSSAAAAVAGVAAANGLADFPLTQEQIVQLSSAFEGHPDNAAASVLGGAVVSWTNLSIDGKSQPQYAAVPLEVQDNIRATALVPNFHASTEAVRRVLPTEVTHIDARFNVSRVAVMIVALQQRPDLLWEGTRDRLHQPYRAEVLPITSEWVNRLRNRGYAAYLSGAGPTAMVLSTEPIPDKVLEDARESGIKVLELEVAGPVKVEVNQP
Described as above. Type of experiment: biochemical.

The Ki is a dissociation constant, usually derived from enzyme kinetics or from competition with a known ligand. Read a low Ki as a stronger hold on the target. `C[C@@H](O)[C@H](N)C(=O)O` [L-threonine]: the results for the Ki in experiment [1] and in experiment [2] were 25.2 mM and 4.73 mM, respectively.
